Data from paper PMC6695191 (PLoS Neglected Tropical Diseases, 2019).
Like-named read-outs stand apart in the source and are kept apart here.

Experiments:
[1] = Selectivity assay on THP-1 macrophages (Alamar Blue); type: cell-based; settings: human
Method: Leishmania donovani axenic cultures (strain MHOM/ET/67/HU3) were maintained in M199 medium (pH 7.4) supplemented with 10% heat-inactivated fetal calf serum (FCS) and grown at 28°C [22].
After incubation for 72 hours (5% CO2, 37°C), medium was aspirated, compounds were added in serial dilutions (100 μL) and the plates were incubated for 120 h. All plates included negative controls and doxorubicin as a positive control. Following incubation, 10 μL of Alamar Blue was added to each well and then the plates were incubated for 3 hours. […] Growth inhibition was expressed as a percentage of the fluorescence of the negative control wells. IC50 values were determined as described above for the promastigote and amastigote assays.

[2] = system: L. donovani promastigotes; assay: L. donovani promastigote assay (Alamar Blue); type: cell-based, Leishmania donovani; settings: 72 h incubation at 28°C, mean ± SD, n = 2 biological replicates
Method: (§1) Leishmania donovani axenic cultures (strain MHOM/ET/67/HU3) were maintained in M199 medium (pH 7.4) supplemented with 10% heat-inactivated fetal calf serum (FCS) and grown at 28°C [22]. Human leukemia cells (THP-1 cell line) were maintained in RPMI-1640 (FCS 10%) and grown at 37°C and 5% CO2. Stock solutions of compounds 1–4 were prepared in 100% DMSO at 10 mM and tested in 2-fold serial dilutions (10 concentrations) in 96-well flat-bottom microtiter plates.
For the promastigote assay, L. donovani cells from axenic cultures in logarithmic growth were seeded at 1 x 10^5/well (M199, 80 μL) and compounds were added in serial dilutions (20 μL). All plates included negative controls (100% parasite growth) and miltefosine as a positive control. After 72 hours of incubation at 28°C, 10 μL of Alamar Blue (12.5 mg resazurin/100 mL distilled water) was added to each well and then the plates were incubated for 3 hours. This indicator of cell viability permeates into viable parasites, where it is reduced by NADPH and NADH enzymes to the highly fluorescent compound resorufin [24]. Following incubation, the plates were read with a microplate fluorometer under an excitation wave length of 536 nm and an emission wave length of 588 nm. […] If the test compound is active against L. donovani, the number of viable parasites is reduced, thus resulting a decrease in fluorescence. Growth inhibition was expressed as a percentage of the fluorescence of the negative control wells. IC50 values were determined using SigmaPlot. Dose-response curves were fitted using log (inhibitor concentration) vs. normalized response (between 0% and 100%) with variable slope, and IC50 values were automatically calculated.

[3] = system: L. donovani intracellular amastigotes; assay: L. donovani intracellular amastigote assay in PMA-differentiated THP-1 macrophages (Giemsa counting); type: cell-based, Leishmania donovani; settings: for Selectivity Index: CC50 THP-1/IC50 intracellular amastigotes; for IC50: L. donovani in THP-1 macrophages, 120 h incubation, mean ± SD, n = 2 biological replicates
Method: as §1
In the intracellular amastigote assay, THP-1 cells were seeded at 2 × 10^4/well (RPMI-1640, 100 μL) with phorbol 12-myristate 13-acetate (PMA) at 20 ng/mL for differentiation into macrophages. After incubation for 72 hours (5% CO2, 37°C), medium was aspirated and late-stage promastigotes were added (2 × 10^5/well, 100 μL). After 24 hours of incubation, medium was aspirated to clear extracellular parasites, compounds were added in serial dilutions (100 μL) and the plates were incubated for 120 hours. All plates included negative controls (100% parasite growth) and miltefosine as a positive control. Following incubation, medium was removed and the cells were fixed in methanol and stained with Giemsa. The average number of intracellular amastigotes per THP-1 cell was determined using an inverted microscope and a cell counter. Growth inhibition was expressed as a percentage of the average number of amastigotes per macrophage in the negative control wells. IC50 values were determined as described above for the promastigote assay.

Escovopsis sp. = assay: Antagonist bioassay of compounds and fractions against Escovopsis on ISP-2 agar; type: cell-based; settings: 100 μg compound, 21 days
Method: (§2) Each bacterium-fungus and compound-fungal challenge was replicated two times on ISP-2 agar. Bacteria strains were initially screened against Escovopsis sp. ICBG1251. Bacteria were placed in the center of ISP-2 agar Petri dishes and grown alone during 7 days; fungal strains were then point-inoculated near the edge of the culture (microbial strains distant from each other around 3 cm). Two microliters of compounds (100 μg) were placed in the center of Petri dishes and fungal strains were then point-inoculated near the edge of the plate. The positive control used was the miconazole. Challenges were monitored each 7 days and inhibition zone was measure after 21 days. Four different fungal strains were used for testing the pure compounds: Escovopsis sp. ICBG711 (from Trachymyrmex colony), Escovopsis sp. ICBG740 (from Acromyrmex colony), Escovopsis sp. ICBG1251 (from Atta colony) and Trichoderma sp. ICBG1100 (from attine colony).

Trichoderma sp. ICBG1100 = assay: Antagonist bioassay of compounds against Trichoderma on ISP-2 agar; type: cell-based; settings: 100 μg compound, 21 days of growth at 28°C
Method: as §2

[4] = THP-1 macrophages, 120 h incubation, mean ± SD, n = 2 biological replicates, read-out: CC50 THP-1

For `CO[C@@H]1C[C@@H](C[C@H]2CC[C@H](C)[C@H]([C@@H](C)C(=O)O)O2)O[C@]2(O[C@](C)([C@H]3CC[C@@](C)([C@@H]4O[C@@H]([C@H]5O[C@@](O)(CO)[C@H](C)C[C@@H]5C)C[C@@H]4C)O3)C[C@H]2C)[C@@H]1C` [Compound 3, nigericin], the CC50 at 120 h [1] was 11.5 ± 0.68 µM, the IC50 ([2]; Leishmania donovani) was 0.284 ± 0.072 µM and the “Selectivity Index” value [3] was 88.91. For the same compound, the IC50 ([3]; Leishmania donovani) was 0.129 ± 0.008 µM.

In the case of `C/C=C(\C)[C@H](O)[C@H](C)/C=C(C)/C=C/C/C(C)=C/Cc1nc(OC)cc(O)c1C` [Compound 1, Mer-A2026B], the IC50 [2] is reported as 35.9 ± 1.83 µM, the “Antagonist activity against four different Escovopsis strains compared to compounds 2–4” value (Escovopsis sp.) is reported as “higher antagonist activity” and the “Activity against Trichoderma sp.” value (Trichoderma sp. ICBG1100) is reported as “active”. It also gave an IC50 [3] of 49.9 ± 7.01 µM.

`C/C=C(\C)[C@H](O)[C@H](C)/C=C(C)/C=C/C/C(C)=C/Cc1nc(OC)c(OC)c(O)c1C` [Compound 2, piericidin-A1] gave a CC50 at 120 h [1, 4] greater than 64 µM, an IC50 ([2]; Leishmania donovani) of 38.4 ± 4.63 µM and an IC50 ([3]; Leishmania donovani) greater than 64 µM.

Compound `CCCCCCCCCCCCCCCCOP(=O)([O-])OCC[N+](C)(C)C` [Miltefosine, reference compound] has an IC50 ([2]; Leishmania donovani) of 4.74 ± 0.25 µM and an IC50 ([3]; Leishmania donovani) of 5.8 ± 0.59 µM.

For `CC[C@@H]1C[C@H]2CC[C@H](O2)[C@H](C)C(=O)O[C@@H](C)C[C@@H]2CC[C@@H](O2)[C@@H](C)C(=O)O[C@H](CC)C[C@H]2CC[C@H](O2)[C@H](C)C(=O)O[C@@H](C)C[C@@H]2CC[C@@H](O2)[C@@H](C)C(=O)O1` [Compound 4, dinactin], the CC50 at 120 h [1, 4] was 11.8 ± 1.57 µM, the IC50 ([2]; Leishmania donovani) was 0.032 ± 0.005 µM and the “Selectivity Index” value [3] was 656.11. The IC50 ([3]; Leishmania donovani) was 0.018 ± 0.003 µM.

Compound `COc1cccc2c1C(=O)c1c(O)c3c(c(O)c1C2=O)C[C@@](O)(C(=O)CO)C[C@@H]3O[C@H]1C[C@H](N)[C@H](O)[C@H](C)O1` [Doxorubicin, reference compound] has a CC50 at 120 h ([1]; THP-1 cells differentiated into macrophages with PMA, THP-1 macrophages, 120 h incubation, mean ± SD, n = 2 biological replicates, read-out: CC50 THP-1) of 0.571 ± 0.068 µM.
